The record followed here is article PMC12136037, “Type II kinase inhibitors that target Parkinson’s disease–associated LRRK2” (Science Advances, 2025).

Where two headings read alike, the source gives them in different places.

In the experiment the target is T1, CLK1 (Homo sapiens, UniProt P49759).
T1 construct: host or cells: HEK293T (ATCC CRL-3216)
Description: nanoBRET off-target validation. It is filed as cell-based.

T1 sequence (P49759 whole entry): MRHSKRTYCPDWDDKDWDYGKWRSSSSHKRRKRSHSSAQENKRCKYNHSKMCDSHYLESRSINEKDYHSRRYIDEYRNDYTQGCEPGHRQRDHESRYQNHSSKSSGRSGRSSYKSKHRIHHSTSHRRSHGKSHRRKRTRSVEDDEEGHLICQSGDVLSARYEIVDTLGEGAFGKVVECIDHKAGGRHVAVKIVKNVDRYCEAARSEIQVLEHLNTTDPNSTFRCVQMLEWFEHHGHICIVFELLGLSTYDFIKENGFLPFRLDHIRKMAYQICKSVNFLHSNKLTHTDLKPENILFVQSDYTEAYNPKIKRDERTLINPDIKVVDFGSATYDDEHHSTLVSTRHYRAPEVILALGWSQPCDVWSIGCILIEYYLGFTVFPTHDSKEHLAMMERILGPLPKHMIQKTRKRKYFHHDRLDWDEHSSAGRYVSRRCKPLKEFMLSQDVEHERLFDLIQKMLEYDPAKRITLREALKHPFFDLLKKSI

What is called EC50 is the midpoint of the concentration-response curve. Consider `CCSc1nc(NC)c2c(-c3cccc(NC(=O)Nc4cc(C(C)(C)C)nn4-c4ccc(C)cc4)c3)c[nH]c2n1` [Compound 32], for which it took 6 µM to reach a half-maximal effect (EC50). The “nanoBRET response normalized to 0% (no tracer) and 100% (no inhibitor) control” value (CLK1, inhibitor 8 nM, two replicates, listed as RN341, 0.008 µM) is recorded as 96.3388%. Besides, the normalized NanoBRET tracer signal at 0.008 µM (CLK1, inhibitor 8 nM, two replicates, read-out: nanoBRET response normalized to 0% (no tracer) and 100% (no inhibitor) control) turned out to be 99.4%. Where the note is “CLK1, inhibitor 16 nM, two replicates, listed as RN341, 0.016 µM”, the “nanoBRET response normalized to 0% (no tracer) and 100% (no inhibitor) control” value stood at 93.1575%. Moreover, where the note is “CLK1, inhibitor 16 nM, two replicates, read-out: nanoBRET response normalized to 0% (no tracer) and 100% (no inhibitor) control”, the normalized NanoBRET tracer signal at 0.016 µM stood at 93.9%. Moreover, the “nanoBRET response normalized to 0% (no tracer) and 100% (no inhibitor) control” value (CLK1, inhibitor 50 nM, two replicates, listed as RN341, 0.05 µM) amounted to 98.6143%. Besides, for the setting “CLK1, inhibitor 50 nM, two replicates, read-out: nanoBRET response normalized to 0% (no tracer) and 100% (no inhibitor) control”, the normalized NanoBRET tracer signal at 0.05 µM was 97.1%. In addition, for the setting “CLK1, inhibitor 250 nM, two replicates, listed as RN341, […]”, the “nanoBRET response normalized to 0% (no tracer) and 100% (no inhibitor) control” value was 91.8848%. For the setting “CLK1, inhibitor 250 nM, two replicates, read-out: nanoBRET response normalized to 0% (no tracer) and 100% (no inhibitor) control”, the normalized NanoBRET tracer signal at […] amounted to 93.8%. Besides, the “nanoBRET response normalized to 0% (no tracer) and 100% (no inhibitor) control” value (CLK1, inhibitor 500 nM, two replicates, listed as RN341, 0.5 µM) was determined as 89.5722%. The normalized NanoBRET tracer signal at 0.5 µM (CLK1, inhibitor 500 nM, two replicates, read-out: nanoBRET response normalized to 0% (no tracer) and 100% (no inhibitor) control) is 87.8%. Also, the “nanoBRET response normalized to 0% (no tracer) and 100% (no inhibitor) control” value (CLK1, inhibitor 2500 nM, two replicates, listed as RN341, […]) came to 66.5911%. Also, for the setting “CLK1, inhibitor 2500 nM, two replicates, read-out: nanoBRET response normalized to 0% (no tracer) and 100% (no inhibitor) control”, the normalized NanoBRET tracer signal at […] was determined as 70.4%. Under “CLK1, inhibitor 5000 nM, two replicates, listed as RN341, 5 µM”, the “nanoBRET response normalized to 0% (no tracer) and 100% (no inhibitor) control” value was 68.3349%. In addition, the normalized NanoBRET tracer signal at 5 µM (CLK1, inhibitor 5000 nM, two replicates, read-out: nanoBRET response normalized to 0% (no tracer) and 100% (no inhibitor) control) came to 62%. The “nanoBRET response normalized to 0% (no tracer) and 100% (no inhibitor) control” value (CLK1, inhibitor 25000 nM, two replicates, listed as RN341, 25 µM) came out at 18.5705%. In addition, the normalized NanoBRET tracer signal at 25 µM (CLK1, inhibitor 25000 nM, two replicates, read-out: nanoBRET response normalized to 0% (no tracer) and 100% (no inhibitor) control) was 17.2%.
